Laboratory results: paper PMC7024175, “In Depth Analysis of Kinase Cross Screening Data to Identify CAMKK2 Inhibitory Scaffolds” (Molecules, 2020)
Read-outs that look alike come from different tables or passages of the source.

Molecular target: T1, CAMKK2 (Homo sapiens, UniProt Q96RR4)
T1 construct: made in house
Assay: CAMKK2 enzyme assay (radiometric, CaMKKtide)
Type: biochemical
Settings: for remaining activity at 0.01 µM / remaining activity at 0.1 µM / remaining activity at 1 µM: read-out: PoC (activity remaining)

[1] = 8-point full dose response, read-out: IC50

T1 sequence (Q96RR4 whole entry): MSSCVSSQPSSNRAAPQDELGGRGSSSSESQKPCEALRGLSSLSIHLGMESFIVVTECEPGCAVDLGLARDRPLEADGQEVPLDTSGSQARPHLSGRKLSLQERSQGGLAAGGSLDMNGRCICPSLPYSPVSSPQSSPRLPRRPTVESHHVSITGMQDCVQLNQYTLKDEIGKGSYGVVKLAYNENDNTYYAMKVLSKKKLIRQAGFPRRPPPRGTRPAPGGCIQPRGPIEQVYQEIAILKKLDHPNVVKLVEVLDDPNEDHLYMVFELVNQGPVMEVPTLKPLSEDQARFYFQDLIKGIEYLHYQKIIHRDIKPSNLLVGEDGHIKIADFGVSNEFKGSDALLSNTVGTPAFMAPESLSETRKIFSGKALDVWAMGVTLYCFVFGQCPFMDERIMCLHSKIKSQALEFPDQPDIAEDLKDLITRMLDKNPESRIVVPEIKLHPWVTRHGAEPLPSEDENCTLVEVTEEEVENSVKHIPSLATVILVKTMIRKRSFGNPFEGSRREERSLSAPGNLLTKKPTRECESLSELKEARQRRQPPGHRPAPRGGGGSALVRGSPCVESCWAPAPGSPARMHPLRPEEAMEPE
Protocol: CAMKK2 activity was determined by measuring the transfer of radiolabeled phosphate from [γ-^32P]-ATP to a synthetic peptide substrate (CaMKKtide) as previously described [49]. Briefly, purified recombinant CAMKK2 (100 pM) was incubated in assay buffer (50 mM HEPES [pH 7.4], 1 mM DTT, 0.02% [v/v] Brij-35) containing 200 μM CaMKKtide (Genscript), 100 μM CaCl2, 1 μM CaM (Sigma-Aldrich, Castle Hill, NSW, Australia) 200 μM [γ-^32P]-ATP (Perkin Elmer, Boston, MA, USA), 5 mM MgCl2 (Sigma-Aldrich, Castle Hill, NSW, Australia) and various concentrations of inhibitors (0–1 μM) in a standard 30 μl assay for 10 min at 30 °C. Reactions were terminated by spotting 15 μl onto P81 phosphocellulose paper (GE Lifesciences, Paramatta, NSW, Australia) and washing extensively in 1% phosphoric acid (Sigma-Aldrich, Castle Hill, NSW, Australia). Radioactivity was quantified by liquid scintillation counting.

SMILES	remaining activity at 0.01 µM (0.01 µM inhibitor) [%]	remaining activity at 0.1 µM (0.1 µM inhibitor) [%]	remaining activity at 1 µM (1.0 µM inhibitor) [%]	PoC (activity remaining) (0.01 µM inhibitor) [%]	PoC (activity remaining) (1.0 µM inhibitor) [%]	further results
CCc1nc(C(N)=O)c(Nc2ccc(N3CCC(N4CCN(C)CC4)CC3)c(OC)c2)nc1NC1CCOCC1 [Gilteritinib]	84	74	18	–	–	IC50 [1]: 204 nM
CCN1CCN(c2ccc(Nc3cc(N(C)C(=O)Nc4c(Cl)c(OC)cc(OC)c4Cl)ncn3)cc2)CC1 [BGJ 398]	100	99	96	–	–	–
C=CCn1c(=O)c2cnc(Nc3ccc(N4CCN(C)CC4)cc3)nc2n1-c1cccc(C(C)(C)O)n1 [MK1775]	101	99	99	–	–	–
Cc1ncc(CCCN(C)C)cc1Nc1ncc2c(n1)-c1ccc(C(F)(F)F)cc1NC(=S)C2 [MLN 0905]	–	–	–	99	86	PoC (activity remaining) (0.1 µM inhibitor): 95%
C1=C/COCc2cc(ccc2OCCN2CCCC2)Nc2nccc(n2)-c2cccc(c2)COC/1 [Pacritinib]	96	78	31	–	–	–
Cc1cc2c(F)c(Oc3ncnn4cc(OC[C@@H](C)O)c(C)c34)ccc2[nH]1 [Brivanib]	101	100	100	–	–	–
CCS(=O)(=O)Nc1ccc2c(c1)/C(=C(/Nc1ccc(CN3CCCCC3)cc1)c1ccccc1)C(=O)N2 [Hesperadin]	99	95	84	–	–	–
Cc1c[nH]c(-c2cnc(NCCNc3ccc(C#N)cn3)nc2-c2ccc(Cl)cc2Cl)n1 [CHIR99021]	98	101	96	–	–	–
Cn1c2ccccc2c2c3c(c4c5ccccc5n(CCC#N)c4c21)CNC3=O [Go6976]	97	92	80	–	–	–
O=C(c1ccc(/C=C/c2n[nH]c3ccccc23)cc1)N1CCNCC1 [KW2449]	96	84	42	–	–	–
O=C(Nc1nc2cccc(-c3ccc(CN4CCS(=O)(=O)CC4)cc3)n2n1)C1CC1 [Filgotinib]	96	86	72	–	–	–
CC(C)[C@H](CO)Nc1nc(Nc2cc(N)cc(Cl)c2)c2ncn(C(C)C)c2n1 [Aminopurvalanol]	100	80	22	–	–	–
COCCOc1ccc2c(c1)ncn2-c1ccc2cccc(N3CCC(N)CC3)c2n1 [CP 673451]	88	46	17	–	–	IC50 [1]: 73 nM
CC1(COc2ccc3c(c2)ncn3-c2ccc3cccc(N4CCC(N)CC4)c3n2)COC1 [Crenolanib]	118	92	47	–	–	–
CC[C@@H]1C(=O)N(C)c2cnc(Nc3ccc(C(=O)N[C@H]4CC[C@H](N5CCN(CC6CC6)CC5)CC4)cc3OC)nc2N1C(C)C [BI6727]	104	94	75	–	–	–
CN1CC[C@H](c2c(O)cc(O)c3c(=O)cc(-c4ccccc4Cl)oc23)[C@H](O)C1 [Alvocidib]	102	62	29	–	–	–
CCOc1cc2ncc(C#N)c(Nc3ccc(F)c(Cl)c3)c2cc1NC(=O)/C=C/CN(C)C [Pelitinib]	100	84	60	–	–	–
COC(=O)[C@@]1(O)C[C@H]2O[C@]1(C)n1c3ccccc3c3c4c(c5c6ccccc6n2c5c31)C(=O)NC4 [K252a]	–	–	–	99	31	–
COc1cc(N2CCC(N3CCN(C)CC3)CC2)ccc1Nc1ncc(Cl)c(Nc2ccccc2S(=O)(=O)C(C)C)n1 [TAE684]	97	87	42	–	–	–
COc1cc(N2CCC(N3CCN(C)CC3)CC2)ccc1Nc1ncc(Cl)c(Nc2ccccc2P(C)(C)=O)n1 [AP26113]	–	–	–	–	–	remaining activity at 0.01 µM: 60%; remaining activity at 0.1 µM: 20%; remaining activity at 1 µM: 2%
COc1cc(N2CCOCC2)ccc1Nc1ncc(F)c(Nc2ccccc2NS(C)(=O)=O)n1 [CZC 25146]	–	–	–	96	93	PoC (activity remaining) (0.1 µM inhibitor): 101%
CNC(=O)c1ccccc1Nc1nc(Nc2ccc(N3CCOCC3)cc2OC)ncc1Cl [TAE226]	–	–	–	104	90	PoC (activity remaining) (0.1 µM inhibitor): 97%
C[C@]12O[C@H](C[C@]1(O)CO)n1c3ccccc3c3c4c(c5c6ccccc6n2c5c31)CNC4=O [Lestaurtinib]	–	–	–	–	–	remaining activity at 0.01 µM: 64%; remaining activity at 0.1 µM: 33%; remaining activity at 1 µM: 3%
CNC(=O)c1cc(Oc2ccc(NC(=O)Nc3cc(C(C)(C)C)nn3-c3ccc4ncccc4c3)c(F)c2)ccn1 [Rebasitinib]	–	–	–	95	81	PoC (activity remaining) (0.1 µM inhibitor): 93%

SMILES	remaining activity at 0.01 µM (0.01 µM inhibitor) [%]	remaining activity at 0.1 µM (0.1 µM inhibitor) [%]	remaining activity at 1 µM (1.0 µM inhibitor) [%]	PoC (activity remaining) (0.01 µM inhibitor) [%]	PoC (activity remaining) (1.0 µM inhibitor) [%]	further results
CN(C)S(=O)(=O)c1ccc2c(c1)/C(=C/c1cc3c([nH]1)CCCC3)C(=O)N2 [SU6656]	95	86	71	–	–	–
CC(=O)NCC(=O)N1[C@@H]2CC[C@H]1c1ccc(Nc3ncc(C(F)(F)F)c(NC4CCC4)n3)cc12 [PF03814735]	–	–	–	92	20	PoC (activity remaining) (0.1 µM inhibitor): 70%; IC50 [1]: 227 nM
O=C1NC(=O)/C(=C/c2ccc3nccc(-c4ccncc4)c3c2)S1 [GSK1059615]	92	81	34	–	–	–
c1ccc2c(-c3cnn4cc(-c5ccc(N6CCNCC6)cc5)cnc34)ccnc2c1 [LDN 193189]	–	–	–	68	50	PoC (activity remaining) (0.1 µM inhibitor): 62%; IC50 [1]: 146 nM
C[C@@H](Oc1cc(-n2cnc3ccc(CN4CCN(C)CC4)cc32)sc1C(N)=O)c1ccccc1C(F)(F)F [GSK461364]	95	96	92	–	–	–
O=C1NC(=O)c2c1c1c3ccccc3n3c1c1c2c2ccccc2n1C1CCC3O1 [SB 218078]	–	–	–	98	64	PoC (activity remaining) (0.1 µM inhibitor): 86%
O=C1Nc2cc(Br)ccc2/C1=C1/Nc2ccccc2/C1=N\O [BIO]	–	–	–	102	89	PoC (activity remaining) (0.1 µM inhibitor): 100%
c1cc(-c2cnn3cc(-c4ccc(OCCN5CCCCC5)cc4)cnc23)ccn1 [Dorsomorphin]	100	96	58	–	–	–
CNC(=O)c1nn(C)c2c1C(C)(C)Cc1cnc(Nc3ccc(N4CCN(C)CC4)cc3)nc1-2 [Milciclib]	107	105	76	–	–	–
N#Cc1c(Oc2ccc(F)c(NC(=O)Cc3cccc(C(F)(F)F)c3)c2)ccc2nc(NC(=O)C3CC3)sc12 [TAK632]	–	–	–	92	82	PoC (activity remaining) (0.1 µM inhibitor): 87%
O=C(Nc1cccc(Nc2ncc(Br)c(NCCc3cnc[nH]3)n2)c1)N1CCCC1 [BX912]	–	–	–	100	26	PoC (activity remaining) (0.1 µM inhibitor): 90%
O=C(NCCCNc1nc(Nc2cccc(NC(=O)N3CCCC3)c2)ncc1I)c1cccs1 [BX795]	97	80	33	–	–	–
Cn1cc(C2=C(c3cn(CCCSC(=N)N)c4ccccc34)C(=O)NC2=O)c2ccccc21 [Ro 31-8220]	–	–	–	100	85	PoC (activity remaining) (0.1 µM inhibitor): 100%
CC(C)c1cc(CNc2nc(Nc3cc(C4CC4)[nH]n3)cc(N3CCN(C)CC3)n2)on1 [XL228]	94	65	26	–	–	–
Nc1nc(Nc2ccc(S(N)(=O)=O)cc2)nn1C(=S)Nc1c(F)cccc1F [CDK 1/2 Inhibitor III]	–	–	–	–	–	IC50: 19 nM; remaining activity at 0.01 µM: 69%; remaining activity at 0.1 µM: 17%; remaining activity at 1 µM: 3%
CC(=O)c1cnc2ccc(-c3cc(Cl)c(O)c(Cl)c3)nc2c1N[C@H]1CC[C@H](CN(C)C)CC1 [OTSSP167]	84	49	0	–	–	IC50 [1]: 86 nM
Cc1nc(Nc2[nH]nc3c2CN(C(=O)N[C@H](CN(C)C)c2ccccc2)C3(C)C)c2sccc2n1 [PF3758309]	95	78	71	–	–	–
O=C(NCCCNc1nc(Nc2cccc(CN3CCOCC3)c2)ncc1C1CC1)C1CCC1 [MRT67307]	–	–	–	92	35	PoC (activity remaining) (0.1 µM inhibitor): 86%
COc1cc(N2CCC(N)CC2)ccc1Nc1ncc(Cl)c(-c2c[nH]c3ccccc23)n1 [AZD 3463]	–	–	–	103	26	PoC (activity remaining) (0.1 µM inhibitor): 74%; IC50 [1]: 185 nM
COc1cc(N2CCC(N(C)C)CC2)ccc1Nc1ncc(Cl)c(Nc2ccccc2P(C)(C)=O)n1 [ALK-IN-1]	62	34	3	–	–	IC50 [1]: 28 nM
Cc1[nH]c(/C=C2\C(=O)Nc3ccc(S(=O)(=O)Cc4c(Cl)cccc4Cl)cc32)c(C)c1C(=O)N1CCC[C@@H]1CN1CCCC1 [PHA665752]	109	93	67	–	–	–
CO[C@@H]1[C@H](N(C)C(=O)c2ccccc2)C[C@H]2O[C@]1(C)n1c3ccccc3c3c4c(c5c6ccccc6n2c5c31)C(=O)NC4 [Midostaurin]	–	–	–	–	–	remaining activity at 0.01 µM: 97%; remaining activity at 0.1 µM: 82%; remaining activity at 1 µM: 38%
O=C1NC(=NCc2cccs2)S/C1=C\c1ccc2ncccc2c1 [Ro 3306]	–	–	–	94	88	PoC (activity remaining) (0.1 µM inhibitor): 94%
